1 molecule from US20230020469A1, “USE OF CO-CRYSTALS OF TRAMADOL AND CELECOXIB FOR TREATING PAIN WHILE REDUCING THE ABUSE LIABILITY OF TRAMADOL” (ESTEVE PHARMACEUTICALS, S.A., priority 2019, published 2023) can be followed below.

The data set can be described thus: Single dose, open-label, 4-period crossover pharmacokinetic study; plasma tramadol and O-desmethyltramadol (M1) by HPLC-MS/MS; AQ=Cmax/Tmax. The following applies: for AQ for tramadol, comparison between treatments (in words): 4-way cross-over study, co-crystal vs Ultram® and vs Ultram® and Celebrex® taken concomitantly, Ultram® alone vs in combination; for O-desmethyltramadol AQ / Tramadol AQ: n 33, 2 × 100 mg co-crystal E-58425 tablets oral (Treatment 1), healthy subjects. As for the experimental part:
The study was a single center, randomized, single dose, open-label, 4-period, 4-sequence, crossover design in healthy male and female subjects.
The products were administered to 36 subjects. The wash-out between the periods for each subject was of 7 calendar days.
Separate blood samples were obtained for analysis of tramadol/M1 metabolite and for analysis of celecoxib (data not shown).
As soon as possible following blood collection, samples were centrifuged at a temperature of 4° C. nominal and at approximately 1500 g for 10 minutes. The plasma obtained was separated into duplicate polypropylene culture tubes. […] The samples were frozen in an upright position and retained in the clinic's freezers at a temperature of −20° C. nominal until sent on dry ice to the bioanalytical facility for assay.
The experimental human plasma samples were assayed for tramadol and M1 metabolite (0-desmethyltramadol) and also for celecoxib (data not shown) using two different validated bioanalytical methods by HPLC with MS/MS detection.
Sample pre-treatment involved the liquid-liquid extraction of tramadol and O-desmethyltramadol from 0.100 mL of human plasma; tramadol-D6 and O-desmethyltramadol-D6 were used as the internal standards (IS1 and IS2 respectively). The compounds were identified and quantified using Hilic HPLC with MS/MS detection over a theoretical concentration range of 2.00 ng/mL to 800.00 ng/mL for tramadol and 0.500 ng/mL to 200.00 ng/mL for O-desmethyltramadol. The concentrations were calculated using peak area ratios and the linearity of the calibration curve was determined using a weighted (1/x^2) linear (y=mx+b) least squares regression analysis for tramadol and for O-desmethyltramadol.
Pharmacokinetic parameters were estimated from the individual plasma concentration—time profile for each subject. The main absorption and disposition parameters were obtained using a non-compartmental approach with a log-linear terminal phase assumption. Maximum observed plasma concentration (Cmax) and the time of maximum observed plasma concentration (Tmax) were obtained directly from the experimental data. The trapezoidal rule was used to estimate the area under the curve (AUC; data not shown) and the terminal phase was estimated by maximizing the coefficient of determination estimated from the log-linear regression model (T1/2; data not shown). The abuse quotient was obtained using the following expression AQ=Cmax/Tmax.

On to `COc1cccc(C2(O)CCCCC2CN(C)C)c1.Cc1ccc(-c2cc(C(F)(F)F)nn2-c2ccc(S(N)(=O)=O)cc2)cc1.Cl` (racemic) [Co-crystal E-58425, co-crystal of (rac)-tramadol.HCl and celecoxib], for which the “AQ for tramadol, comparison between treatments (in words)” value is reported as “lower”. Moreover, the “AQ for tramadol, comparison between treatments (in words)” value (listed as co-crystal E-58425) is “better (lower)”. Moreover, under “Mean”, the “O-desmethyltramadol AQ” value is 13.5 ng/(mL · h) and the “Tramadol AQ” value is reported as 70.5 ng/(mL · h). Moreover, where the note is “Median”, the “O-desmethyltramadol AQ” value is on record as 13.3 ng/(mL · h) and the “Tramadol AQ” value was 70.7 ng/(mL · h).
